One series has as its system B16 cells. As to the kind of experiment: In vitro cytotoxicity, XTT assay, B16 cells. The format is cell-based. The conditions noted are these: 48 h. The procedure:
B16 or HeLa cells were plated at a density of 5×10^3 cells per well in D10 media in 96-well plates and grown for 6 h. The cells were then exposed to a series of concentrations of Dox-loaded CMLs, ULs or DLLs for 48 h, and the cytotoxicity of Dox-liposomes was assessed using the Cell Proliferation Kit II (XTT assay) from Roche Applied Science, according to the manufacturer's instructions.
Background: Tetrazolium assays rely on reduction of a dye to a coloured formazan, in cell work by metabolically active cells.

The next series deals with cardiac tissue. As to conditions: 20 mg/kg Dox equivalent, single i.v. An excerpt:
FIGS. 9A-B. In vivo toxicity and tolerability. […] (A) Average mouse weight loss over time. […] Error bars represent the standard deviation of the mean; n=2 for each treatment group (*p<0.05, ***p<0.005).

Series [1] in a line: Maximum tolerated dose study. As to conditions: for body weight: 8 days.
Source text: The mice were weighed and monitored daily for 8 days after injection.

Here are results for one molecule from patent publication US20140356414A1, “Targeted Crosslinked Multilamellar Liposomes” (University of Southern California, priority 2013, published 2014).

In the case of `COc1cccc2c1C(=O)c1c(O)c3c(c(O)c1C2=O)C[C@@](O)(C(=O)CO)C[C@@H]3O[C@H]1C[C@H](N)[C@H](O)[C@H](C)O1` [free Dox, doxorubicin], in the series with B16 cells, the “half-maximal response (EC50)” value is reported as “similar”. Further, in the series on cardiac tissue, the “histopathologic changes in cardiac tissue” value is “severe damage of cardiac tissue”. Also, the body weight entry in series [1] (20 mg/kg Dox equivalent) and in series [1] (40 mg/kg Dox equivalent) was “significant loss of body weight” each time. Besides, the “general health / signs of toxicity” value in series [1] (40 mg/kg free Dox, CML-Dox groups) is reported as “obvious signs of toxicity”. Besides, the maximum tolerated dose in series [1] (single intravenous administration, C57BL/6 mice) is listed as below 20 mg/kg.
